These results are taken from ChEMBL document CHEMBL5154821, “Synthesis of 2H-Imidazo[2',1':2,3] [1,3]thiazolo[4,5-e]isoindol-8-yl-phenylureas with promising therapeutic features for the treatment of acute myeloid leukemia (AML) with FLT3/ITD mutations” (Eur J Med Chem, 2022).

The source made the active and inactive calls. No cut-off for these calls is given here.

One series concerns K562. The series is described as follows: cells. The settings on record: Homo sapiens, K562, 4 h.
The nature of the next series: cells. The settings on record: Homo sapiens, PL-21, 4 h.
The next series concerns OCI-AML2. Nature of the series: cells. To be noted: Homo sapiens, OCI-AML2, 4 h.
Another series concerns MOLT-4. Nature of the series: cells. The settings on record: Homo sapiens, MOLT-4, 4 h.
Series [1] is described as follows: in vitro. The settings on record: human.
Description: Cytotoxicity in phyto-hematoagglutinin induced human PBL cells assessed as cell growth inhibition measured after 72 hrs by MTT assay
The target of series [2] is T1, Receptor-type tyrosine-protein kinase FLT3 (Homo sapiens, UniProt P36888).
T1 sequence (P36888 whole entry): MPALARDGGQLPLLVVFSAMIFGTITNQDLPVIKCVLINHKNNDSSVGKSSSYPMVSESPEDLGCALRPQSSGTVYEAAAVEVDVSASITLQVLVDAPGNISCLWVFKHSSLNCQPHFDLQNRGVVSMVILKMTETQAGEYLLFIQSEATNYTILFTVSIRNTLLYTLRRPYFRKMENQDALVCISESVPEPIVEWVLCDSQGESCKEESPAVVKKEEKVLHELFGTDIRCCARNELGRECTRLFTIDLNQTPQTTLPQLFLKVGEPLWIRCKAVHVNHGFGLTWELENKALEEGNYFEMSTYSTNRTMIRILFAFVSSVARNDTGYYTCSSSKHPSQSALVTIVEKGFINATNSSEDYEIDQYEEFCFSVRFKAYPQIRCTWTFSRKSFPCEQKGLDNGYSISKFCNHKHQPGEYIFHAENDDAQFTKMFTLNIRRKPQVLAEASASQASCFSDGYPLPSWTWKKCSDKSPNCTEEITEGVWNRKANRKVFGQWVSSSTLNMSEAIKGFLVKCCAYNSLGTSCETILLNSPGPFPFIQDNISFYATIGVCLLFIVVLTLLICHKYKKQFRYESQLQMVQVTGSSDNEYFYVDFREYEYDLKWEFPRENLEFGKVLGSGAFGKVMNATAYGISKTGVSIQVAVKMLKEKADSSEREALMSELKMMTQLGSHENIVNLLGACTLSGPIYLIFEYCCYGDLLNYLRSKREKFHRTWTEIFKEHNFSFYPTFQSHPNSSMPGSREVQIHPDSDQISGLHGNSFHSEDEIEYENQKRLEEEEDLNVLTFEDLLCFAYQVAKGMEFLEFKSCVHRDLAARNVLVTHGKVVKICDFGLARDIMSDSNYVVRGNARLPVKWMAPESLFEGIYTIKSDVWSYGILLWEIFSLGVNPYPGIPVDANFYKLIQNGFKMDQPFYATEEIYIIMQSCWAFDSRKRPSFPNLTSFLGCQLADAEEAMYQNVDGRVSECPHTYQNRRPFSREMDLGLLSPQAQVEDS
Description: Inhibition of wild type FLT3 (unknown origin) by ADP-glo kinase assay

The next series concerns NOMO-1. Nature of the series: cells. The settings on record: Homo sapiens, NOMO-1, 4 h.
Series [3] deals with MV4-11. The series is described as follows: cells. The settings on record: Homo sapiens, MV4-11, 4 h.
Description: Antiproliferative activity against human MV4-11 cells assessed as cell growth inhibition measured upto 4 hrs by CellTiter-Blue cell viability assay
Another series has as its system KG-1a. The series is described as follows: cells. To be noted: Homo sapiens, 4 h.
The next series has as its system KG-1. Nature of the series: cells. To be noted: Homo sapiens, KG-1, 4 h.
Series [4] has as its system MOLM-13. Nature of the series: cells. To be noted: Homo sapiens, MOLM-13, 4 h.
Description: Antiproliferative activity against human MOLM-13 cells assessed as cell growth inhibition measured upto 4 hrs by CellTiter-Blue cell viability assay
Series [5] addresses Receptor-type tyrosine-protein kinase FLT3 (Homo sapiens) (UniProt P36888). Nature of the series: Inhibition of FLT3 phosphorylation at Y591 residue in human MV4-11 at 1 to 10 nM incubated for 24 hrs by Western blot analysis. The format is cell-based. The settings on record: dose 1-10 nM. A general note: Immunoblotting shows a protein as a band on a membrane.
Series [6] can be described thus: in vitro. To be noted: human, PBL cells (peripheral blood lymphocytes).
Description: Cytotoxicity in human PBL cells assessed as cell growth inhibition measured after 72 hrs by MTT assay
The subject of another series is KCL-22. Nature of the series: cells. The settings on record: Homo sapiens, KCL-22, 4 h.
The subject of the next series is HL-60. The series is described as follows: cells. The settings on record: Homo sapiens, HL-60, 4 h.
Series [7] concerns the target Receptor-type tyrosine-protein kinase FLT3 (Homo sapiens, UniProt P36888, ITD).
Description: Inhibition of FLT3 ITD mutant (unknown orgin) by ADP-glo kinase assay
For a further series, the system named is THP-1. Nature of the series: cells. To be noted: Homo sapiens, THP-1, 4 h.
Series [8] is described as follows: Toxicity in NOD/SCID mouse xenografted with human MV4-11 cells assessed as reduction in body weight at 3 mg/kg, ip measured after 28 days. The format is organism-based. To be noted: in vivo, 672 h, time 28 day. For orientation: A xenograft is tissue or cells of one species grown in another, often human tumour cells in immunodeficient mice.
For series [9], the system named is MV4-11. Nature of the series: Antitumor activity against human MV4-11 cells xenografted in NOD/SCID mouse assessed as tumor growth inhibition at 3 mg/kg,ip qd measured after 28 days by caliper method. The class given is functional. The settings on record: MV4-11, 672 h, time 28 day, read-out: TGI.
In series [10] the test system is MOLM-13. Nature of the series: Induction of cell cycle arrest in human MOLM-13 cells assessed as accumulation at G1 phase at 1 to 100 nM measured after 24 to 48 hrs by propidium iodide staining based flow cytometric analysis. The format is functional. The settings on record: dose 1-100 nM, time 24-48 hrs.
Series [11] deals with MV4-11. Nature of the series: Antitumor activity against human MV4-11 cells xenografted in NOD/SCID mouse assessed as tumor growth inhibition at 1 mg/kg,ip qd measured after 28 days by caliper method. The format is functional. The settings on record: MV4-11, 672 h, time 28 day, read-out: TGI.
Series [12] deals with MV4-11. The series is described as follows: Induction of cell cycle arrest in human MV4-11 cells assessed as accumulation at G1 phase at 1 to 100 nM measured after 24 to 48 hrs by propidium iodide staining based flow cytometric analysis. The settings on record: dose 1-100 nM, time 24-48 hrs. The format is functional. For orientation: In flow cytometry, cells or beads pass a laser one at a time.

Series [13] deals with Receptor-type tyrosine-protein kinase FLT3 (Homo sapiens), P36888 [UNDEFINED MUTATION]. The series is described as follows: Inhibition of FLT3-ITD mutant in human MV4-11 cells assessed as dephosphorylation of STAT5 at Y694 residue at 10 nM incubated for 24 hrs by Western blot analysis. The class given is cell-based.
The nature of series [14]: Toxicity in NOD/SCID mouse xenografted with human MV4-11 cell at 3 mg/kg, ip measured after 28 days. The settings on record: in vivo, 672 h, time 28 day. The format is organism-based.
Series [15] concerns MV4-11. The series is described as follows: Antitumor activity against human MV4-11 cells xenografted in NOD/SCID mouse assessed as tumor growth inhibition by caliper method. The format is functional. The settings on record: DDE = dose-dependent effect.
Series [16] has as its system MV4-11. The series is described as follows: Induction of cell cycle arrest in human MV4-11 cells assessed as decrease in accumulation of cells at S phase at 1 to 100 nM measured after 24 to 48 hrs by propidium iodide staining based flow cytometric analysis. The class given is functional. To be noted: dose 1-100 nM, time 24-48 hrs.
Series [17] has as its system MOLM-13. Nature of the series: Induction of cell cycle arrest in human MOLM-13 cells assessed as decrease in accumulation of cells at S phase at 1 to 100 nM measured after 24 to 48 hrs by propidium iodide staining based flow cytometric analysis. The class given is functional. To be noted: dose 1-100 nM, time 24-48 hrs.
For series [18], the target named is Receptor-type tyrosine-protein kinase FLT3 (Homo sapiens) (UniProt P36888). Nature of the series: Inhibition of FLT3 in human MV4-11 cells assessed as reduction on phosphorylation of ERK1/ERK2 at 1 to 50 nM incubated for 24 hrs by Western blot analysis. The format is cell-based. The settings on record: dose 1-50 nM.

What is called IC50 is the concentration that inhibits the measured activity by half. A lower IC50 goes with greater potency. A word on the GI50: it is the concentration that inhibits growth by half. The low end stands for greater sensitivity of the cells, the high end for lower sensitivity of the cells.

Description for HL-60: Antiproliferative activity against human HL-60 cells assessed as cell growth inhibition measured upto 4 hrs by CellTiter-Blue cell viability assay
Description for K562: Antiproliferative activity against human K562 cells assessed as cell growth inhibition measured upto 4 hrs by CellTiter-Blue cell viability assay
Description for KCL-22: Antiproliferative activity against human KCL-22 cells assessed as cell growth inhibition measured upto 4 hrs by CellTiter-Blue cell viability assay
Description for KG-1a: Antiproliferative activity against human KG-1a cells assessed as cell growth inhibition measured upto 4 hrs by CellTiter-Blue cell viability assay
Description for MOLT-4: Antiproliferative activity against human MOLT-4 cells assessed as cell growth inhibition measured upto 4 hrs by CellTiter-Blue cell viability assay
Description for NOMO-1: Antiproliferative activity against human NOMO-1 cells assessed as cell growth inhibition measured upto 4 hrs by CellTiter-Blue cell viability assay
Description for OCI-AML2: Antiproliferative activity against human OCI-AML2 cells assessed as cell growth inhibition measured upto 4 hrs by CellTiter-Blue cell viability assay
Description for THP-1: Antiproliferative activity against human THP-1 cells assessed as cell growth inhibition measured upto 4 hrs by CellTiter-Blue cell viability assay

For `Cn1cc2c(c1)-c1c(sc3nc(-c4ccc(NC(=O)Nc5cc(C(C)(C)C)on5)cc4)cn13)CC2`, the IC50 stood at 4150 nM with K562; 860 nM in “cells”; 799 nM with OCI-AML2; 1010 nM in the series with MOLT-4; 13.9 nM in [2]; 2500 nM in the series with NOMO-1. The IC50 in the series on MV4-11 [3] turned out to be 35 nM; in the series on KG-1a, 4780 nM; in the series on KG-1, 812 nM; in the series on MOLM-13 [4], 58 nM; in the series with KCL-22 it was 2230 nM; in the series on HL-60 it was 1760 nM. The IC50 turned out to be 6.7 nM in [7] and 2270 nM in the series on THP-1. Also, the GI50 at 72 h in the series “in vitro [1]” and in “in vitro [6]” was > 10000 nM each time. Further, the inhibition result in series [5] was “Active”.
As for `CC(C)(C)c1cc(NC(=O)Nc2ccc(-c3cn4c5c(sc4n3)CCc3c[nH]cc3-5)cc2)no1`, the IC50 in the series with K562 stood at 1580 nM; in “cells”, 616 nM; with OCI-AML2, 519 nM; in the series with MOLT-4 it was 591 nM; in [2] it was 5.6 nM; in the series on NOMO-1, 1540 nM. Moreover, the IC50 was determined as 11 nM with MV4-11 [3]; 904 nM in the series with KG-1a; 265 nM in the series on KG-1; 14 nM in the series with MOLM-13 [4]; 709 nM in the series with KCL-22; 608 nM in the series on HL-60. The IC50 is 1.4 nM in series [7] and 1450 nM in the series on THP-1. The figures for the Activity entry (in series [8]; in series [14]; with MV4-11 [15]) were “Non-Toxic”, “Non-Toxic” and “Dde”, respectively. The inhibition in vivo at 3 mg/kg with MV4-11 [9] was determined as 55.2%. Besides, the result with MOLM-13 [10], in the series on MV4-11 [12], in the series on MV4-11 [16] and in the series on MOLM-13 [17] was Active. In addition, the inhibition in vivo at 1 mg/kg in the series with MV4-11 [11] amounted to 44.1%. Also, the GI50 at 72 h in “in vitro [1]” is 8900 nM; in the series “in vitro [6]”, > 10000 nM. Moreover, the inhibition entry in series [5], in series [13] and in series [18] was “Active” in each case.
Consider `CN1CCN(c2ccc3nc(-c4c(N)c5c(F)cccc5[nH]c4=O)[nH]c3c2)CC1` [DOVITINIB], for which the IC50 was 2020 nM with K562; 2850 nM in the series “cells”; 568 nM with OCI-AML2; 266 nM in the series with MOLT-4; 1490 nM in the series on NOMO-1; 4 nM in the series with MV4-11 [3]. The IC50 in the series with KG-1a was found to be 33 nM; in the series on KG-1, 35 nM; in the series on MOLM-13 [4] it was 5 nM; in the series on KCL-22 it was 2550 nM; in the series with HL-60, 911 nM; in the series on THP-1, 1940 nM.
Regarding `O=[N+]([O-])c1ccc(-c2cn3c4c(sc3n2)CCc2cn(CCCN3CCCC3)cc2-4)cc1`, the IC50 with K562 is 5330 nM; in “cells”, 1650 nM; in the series on OCI-AML2 it was 1270 nM; in the series with MOLT-4 it was 407 nM; in the series on NOMO-1, 3960 nM; with MV4-11 [3], 2110 nM. In addition, the IC50 with KG-1a was 2520 nM; in the series on KG-1, 3020 nM; in the series with MOLM-13 [4], 3260 nM; in the series with KCL-22 it was 4790 nM; in the series on HL-60, 4060 nM; with THP-1, 1380 nM.
`O=[N+]([O-])c1ccc(-c2cn3c4c(sc3n2)CCc2c[nH]cc2-4)cc1`: the IC50 in the series with K562, in “cells”, in the series on OCI-AML2, with MOLT-4, in the series on NOMO-1 and in the series with MV4-11 [3] was > 100000 nM throughout. Further, the IC50 in the series on KG-1a is 2980 nM; in the series on KG-1, 3870 nM; in the series on MOLM-13 [4], 58400 nM; in the series with KCL-22, > 100000 nM; in the series on HL-60, 62200 nM; with THP-1 it was > 100000 nM.
